# Experimental data reported in patent US10821115B2, “Compounds that inhibit Mcl-1 protein” (priority 2017, dated 2020).
# Where two headings read alike, the source gives them in different places.
# Legend:
# [1] = target: recombinant human Mcl-1 (residues 171-327) / Bim interaction (Homo sapiens (Human), UniProt Q07820); assay: biochemical; assay type: binding; settings: read-out: Mcl-1 HTRF IC50
# [2] = test system: human multiple myeloma cell line, OPM-2; assay: Cell viability assay (OPM-2 10 FBS), CellTiter-Glo; assay type: cell-based
# Outline: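 OPM-2 cells at 3000 cells/well in RPMI 1640 with 10% FBS were exposed to serially diluted compounds for 16 h at 37 °C, 5% CO2.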
# [3] = TR-FRET, Mcl-1(171-327) / biotin-Bim (51-76)
# [4] = Homo sapiens, OPM-2, 16 h, read-out: OPM-2 10% FBS IC50 IP, OPM-2 cells, 10% FBS, 16 h, CellTiter-Glo
# [5] = read-out: OPM-2 10% FBS IC50 IP, OPM-2 cells, 10% FBS, 16 h, CellTiter-Glo
# recombinant human Mcl-1 (residues 171-327) / Bim interaction, sequence (Q07820 171-327): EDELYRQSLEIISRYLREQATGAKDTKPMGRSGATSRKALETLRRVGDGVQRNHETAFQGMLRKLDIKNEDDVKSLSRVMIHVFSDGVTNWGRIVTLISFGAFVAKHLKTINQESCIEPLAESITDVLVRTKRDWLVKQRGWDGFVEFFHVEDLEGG
SMILES,"IC50 [1, 3] [nM]","IC50 [2, 4] [nM]","IC50 [2, 5] [nM]",IC50 [1] [nM]
"C[C@@H]1[C@@H](C)C/C=C/[C@](O)(C2SCCCS2)[C@@H]2CC[C@H]2CN2C[C@@]3(CCCc4cc(Cl)ccc43)COc3ccc(cc32)C(=O)NS1(=O)=O [Example 100259, (1S,3′R,6′R,7′R,8′E,11′S,12′R)-6-chloro-7′-(1,3-dithian-2-yl)-7′-hydroxy-11′,12′-dimethyl-3,4-dihydro-2H,15′H-spiro[naphthalene-1,22′-[20]oxa[13]thia[1,14]diazatetracyclo [14.7.2.0~3,6~.0~19,24~]pentacosa[8,16,18,24]tetraen]-15′-one 13′,13′-dioxide]",6.18,1250,,
"C[C@@H]1[C@@H](C)C/C=C/[C@@](O)(C2SCCCS2)[C@@H]2CC[C@H]2CN2C[C@@]3(CCCc4cc(Cl)ccc43)COc3ccc(cc32)C(=O)NS1(=O)=O [Example 100260, (1S,3′R,6′R,7′S,8′E,11′S,12′R)-6-chloro-7′-(1,3-dithian-2-yl)-7′-hydroxy-11′,12′-dimethyl-3,4-dihydro-2H,15′H-spiro[naphthalene-1,22′-[20]oxa[13]thia[1,14]diazatetracyclo [14.7.2.0~3,6~.0~19,24~]pentacosa[8,16,18,24]tetraen]-15′-one 13′,13′-dioxide]",0.408,94,,
"CO[C@@]1(C2SCCCS2)/C=C/C[C@H](C)[C@@H](C)S(=O)(=O)NC(=O)c2ccc3c(c2)N(C[C@@H]2CC[C@H]21)C[C@@]1(CCCc2cc(Cl)ccc21)CO3 [Example 100261, (1S,3′R,6′R,7′S,8′E,11′S,12′R)-6-chloro-7′-(1,3-dithian-2-yl)-7′-methoxy-11′,12′-dimethyl-3,4-dihydro-2H,15′H-spiro[naphthalene-1,22′-[20]oxa[13]thia[1,14]diazatetracyclo [14.7.2.0~3,6~.0~19,24~]pentacosa[8,16,18,24]tetraen]-15′-one 13′,13′-dioxide]",1.22,533,,
"CC(=O)N[C@@]1(C#N)CCC[C@H](C)[C@@H](C)S(=O)(=O)NC(=O)c2ccc3c(c2)N(C[C@@H]2CC[C@H]21)C[C@@]1(CCCc2cc(Cl)ccc21)CO3 [Example 100263, N-((1S,3′R,6′R,7′S,11′S,12′R)-6-chloro-7′-cyano-11′,12′-dimethyl-13′,13′-dioxido-15′-oxo-3,4-dihydro-2H-spiro[naphthalene-1,22′-[20]oxa[13]thia[1,14]diazatetracyclo [14.7.2.0~3,6~.0~19,24~]pentacosa[16,18,24]trien]-7′-yl)acetamide]",1.83,3390,,
"C[C@@H]1[C@@H](C)C/C=C/[C@@]2(COCCO2)[C@@H]2CC[C@H]2CN2C[C@@]3(CCCc4cc(Cl)ccc43)COc3ccc(cc32)C(=O)NS1(=O)=O [Example 100264, (2S,3′R,6′R,8′E,11′S,12′R,22′S)-6″-chloro-11′,12′-dimethyl-3″,4″-dihydro-2″H,15′H-dispiro[1,4-dioxane-2,7′-[20]oxa[13]thia[1,14]diazatetracyclo [14.7.2.0~3,6~.0~19,24~]pentacosa[8,16,18,24]tetraene-22′,1″-naphthalen]-15′-one 13′,13′-dioxide]",0.384,,600,
"CC(=O)N[C@@]1(CO)CCC[C@H](C)[C@@H](C)S(=O)(=O)NC(=O)c2ccc3c(c2)N(C[C@@H]2CC[C@H]21)C[C@@]1(CCCc2cc(Cl)ccc21)CO3 [Example 100265, N-((1S,3′R,6′R,7′S,11′S,12′R)-6-chloro-7′-(hydroxymethyl)-11′,12′-dimethyl-13′,13′-dioxido-15′-oxo-3,4-dihydro-2H-spiro[naphthalene-1,22′-[20]oxa[13]thia[1,14]diazatetracyclo [14.7.2.0~3,6~.0~19,24~]pentacosa[16,18,24]trien]-7′-yl)acetamide]",0.439,441,,
"CC#C[C@]1(O)CCC[C@H](C)[C@@H](C)S(=O)(=O)NC(=O)c2ccc3c(c2)N(C[C@@H]2CC[C@H]21)C[C@@]1(CCCc2cc(Cl)ccc21)CO3 [Example 100267, (1S,3′R,6′R,7′S,11′S,12′R)-6-chloro-7′-hydroxy-11′,12′-dimethyl-7′-(1-propyn-1-yl)-3,4-dihydro-2H,15′H-spiro[naphthalene-1,22′-[20]oxa[13]thia[1,14]diazatetracyclo [14.7.2.0~3,6~.0~19,24~]pentacosa[16,18,24]trien]-15′-one 13′,13′-dioxide]",,,274,0.166
"CC#C[C@]1(O)CCC[C@H](C)[C@@H](C)S(=O)(=O)NC(=O)c2ccc3c(c2)N(C[C@@H]2CC[C@H]21)C[C@@]1(CCCc2cc(Cl)ccc21)CO3 [Example 100268, (1S,3′R,6′R,7′S,11′S,12′R)-6-chloro-7′-hydroxy-11′,12′-dimethyl-7′-(1-propyn-1-yl)-3,4-dihydro-2H,15′H-spiro[naphthalene-1,22′-[20]oxa[13]thia[1,14]diazatetracyclo [14.7.2.0~3,6~.0~19,24~]pentacosa[16,18,24]trien]-15′-one 13′,13′-dioxide]",,,3810,3.44
"C[C@@H]1[C@@H](C)CCC[C@@]2(COCCN2)[C@@H]2CC[C@H]2CN2C[C@@]3(CCCc4cc(Cl)ccc43)COc3ccc(cc32)C(=O)NS1(=O)=O [Example 100269, (1S,3′R,6′R,7′S,11′S,12′R)-6-chloro-11′,12′-dimethyl-3,4-dihydro-2H,15′H-dispiro[naphthalene-1,22′-[20]oxa[13]thia[1,14]diazatetracyclo [14.7.2.0~3,6~.0~19,24~]pentacosa[16,18,24]triene-7′,3″-[1,4]oxazinan]-15′-one 13′,13′-dioxide]",0.908,1230,,
"C[C@@H]1[C@@H](C)CCC[C@@](O)(COS(C)(=O)=O)[C@@H]2CC[C@H]2CN2C[C@@]3(CCCc4cc(Cl)ccc43)COc3ccc(cc32)C(=O)NS1(=O)=O [Example 100271, ((1S,3′R,6′R,7′S,11′S,12′R)-6-chloro-7′-hydroxy-11′,12′-dimethyl-13′,13′-dioxido-15′-oxo-3,4-dihydro-2H-spiro[naphthalene-1,22′-[20]oxa[13]thia[1,14]diazatetracyclo [14.7.2.0~3,6~.0~19,24~]pentacosa[16,18,24]trien]-7′-yl)methyl methanesulfonate]",,,6120,2.48
"CC(=O)N[C@@]1(CN2CCOCC2)CCC[C@H](C)[C@@H](C)S(=O)(=O)NC(=O)c2ccc3c(c2)N(C[C@@H]2CC[C@H]21)C[C@@]1(CCCc2cc(Cl)ccc21)CO3 [Example 100272, N-((1S,3′R,6′R,7′S,11′S,12′R)-6-chloro-11′,12′-dimethyl-7′-(4-morpholinylmethyl)-13′,13′-dioxido-15′-oxo-3,4-dihydro-2H-spiro[naphthalene-1,22′-[20]oxa[13]thia[1,14]diazatetracyclo [14.7.2.0~3,6~.0~19,24~]pentacosa[16,18,24]trien]-7′-yl)acetamide]",0.401,349,,
"C[C@@H]1[C@@H](C)C/C=C/[C@@](O)(c2ncccn2)[C@@H]2CC[C@H]2CN2C[C@@]3(CCCc4cc(Cl)ccc43)COc3ccc(cc32)C(=O)NS1(=O)=O [Example 100275, (1S,3′R,6′R,7′S,8′E,11′S,12′R)-6-chloro-7′-hydroxy-11′,12′-dimethyl-7′-(2-pyrimidinyl)-3,4-dihydro-2H,15′H-spiro[naphthalene-1,22′-[20]oxa[13]thia[1,14]diazatetracyclo [14.7.2.0~3,6~.0~19,24~]pentacosa[8,16,18,24]tetraen]-15′-one 13′,13′-dioxide]",0.113,309,,
"CO[C@]1(c2ncccn2)CCC[C@H](C)[C@@H](C)S(=O)(=O)NC(=O)c2ccc3c(c2)N(C[C@@H]2CC[C@H]21)C[C@@]1(CCCc2cc(Cl)ccc21)CO3 [Example 100276, (1S,3′R,6′R,7′R,11′S,12′R)-6-chloro-7′-methoxy-11′,12′-dimethyl-7′-(2-pyrimidinyl)-3,4-dihydro-2H,15′H-spiro[naphthalene-1,22′-[20]oxa[13]thia[1,14]diazatetracyclo [14.7.2.0~3,6~.0~19,24~]pentacosa[16,18,24]trien]-15′-one 13′,13′-dioxide]",0.326,1530,,
"COCCN(C)C(=O)C[C@]1(O)/C=C/C[C@H](C)[C@@H](C)S(=O)(=O)NC(=O)c2ccc3c(c2)N(C[C@@H]2CC[C@H]21)C[C@@]1(CCCc2cc(Cl)ccc21)CO3 [Example 100277, 2-((1S,3′R,6′R,7′S,8′E,11′S,12′R)-6-chloro-7′-hydroxy-11′,12′-dimethyl-13′,13′-dioxido-15′-oxo-3,4-dihydro-2H-spiro[naphthalene-1,22′-[20]oxa[13]thia[1,14]diazatetracyclo [14.7.2.0~3,6~.0~19,24~]pentacosa[8,16,18,24]tetraen]-7′-yl)-N-(2-methoxyethyl)-N-methylacetamide]",0.266,448,,
"CO[C@]1(c2ncccn2)/C=C/C[C@H](C)[C@@H](C)S(=O)(=O)NC(=O)c2ccc3c(c2)N(C[C@@H]2CC[C@H]21)C[C@@]1(CCCc2cc(Cl)ccc21)CO3 [Example 100278, (1S,3′R,6′R,7′R,8′E,11′S,12′R)-6-chloro-7′-methoxy-11′,12′-dimethyl-7′-(2-pyrimidinyl)-3,4-dihydro-2H,15′H-spiro[naphthalene-1,22′-[20]oxa[13]thia[1,14]diazatetracyclo [14.7.2.0~3,6~.0~19,24~]pentacosa[8,16,18,24]tetraen]-15′-one 13′,13′-dioxide]",0.458,333,,
"C[C@@H]1[C@@H](C)CCC[C@](O)(c2ncccn2)[C@@H]2CC[C@H]2CN2C[C@@]3(CCCc4cc(Cl)ccc43)COc3ccc(cc32)C(=O)NS1(=O)=O [Example 100279, (1S,3′R,6′R,7′R,11′S,12′R)-6-chloro-7′-hydroxy-11′,12′-dimethyl-7′-(2-pyrimidinyl)-3,4-dihydro-2H,15′H-spiro[naphthalene-1,22′-[20]oxa[13]thia[1,14]diazatetracyclo [14.7.2.0~3,6~.0~19,24~]pentacosa[16,18,24]trien]-15′-one 13′,13′-dioxide]",,,3250,0.777
